Experimental data: patent US7160905B2, “Hydroxyethylene compounds with Asp2 inhibitory activity” (SmithKline Beecham p.l.c., priority 2001, dated 2007)
Where two headings read alike, the source gives them in different places.

Legend:
Format in all cases: biochemical
[1] = biological target: Asp-2 (Homo sapiens, UniProt P56817); experiment: Asp-2 inhibitory assay (FAM-[SEVNLDAEFK]-TAMRA fluorescence); conditions: Assay (I), 1 h at room temperature, pH 4.5
Method: (I) Asp-2 Inhibitory Assay
For each compound being assayed, in a 384 well plate, is added:— • a) 1 μl of a DMSO solution of the test compound (IC50 curve uses ten 1 in 2 serial dilutions from 500 μM) • b) 10 μl of substrate (FAM-[SEVNLDAEFK]-TAMRA) solution in buffer. This is prepared by diluting 2 ml of a 2 mM DMSO solution of the substrate into 400 ml of buffer (100 mM Sodium acetate pH=4.5, 1 l Milli-Q water, 0.06% Triton X-100 (0.5 ml/l), pH adjusted to 4.5 using glacial acetic acid). Aminomethyl fluorescein (FAM) and tetramethyl rhodamine (TAMRA) are fluorescent molecules which co-operate to emit fluorescence at 535 nm upon cleavage of the SEVNLDAEFK peptide. • c) 10 μl enzyme solution. This is prepared by diluting 16 ml of a 500 nM enzyme solution into 384 ml of buffer (prepared as above).
(§1) Blank wells (enzyme solution replaced by buffer) are included as controls on each plate. Wells are incubated for 1 h at room temperature and fluorescence read using a Tecan Ultra Fluorimeter/Spectrophotometer (485 nm excitation, 535 nm emission).

[2] = biological target: T1, Asp-1 (Homo sapiens, UniProt Q9Y5Z0); experiment: Asp-1 inhibitory assay (FAM-[SEVNLDAEFK]-TAMRA fluorescence); conditions: Assay (II), 2 h at room temperature, pH 4.5
T1 sequence (Q9Y5Z0 63-518): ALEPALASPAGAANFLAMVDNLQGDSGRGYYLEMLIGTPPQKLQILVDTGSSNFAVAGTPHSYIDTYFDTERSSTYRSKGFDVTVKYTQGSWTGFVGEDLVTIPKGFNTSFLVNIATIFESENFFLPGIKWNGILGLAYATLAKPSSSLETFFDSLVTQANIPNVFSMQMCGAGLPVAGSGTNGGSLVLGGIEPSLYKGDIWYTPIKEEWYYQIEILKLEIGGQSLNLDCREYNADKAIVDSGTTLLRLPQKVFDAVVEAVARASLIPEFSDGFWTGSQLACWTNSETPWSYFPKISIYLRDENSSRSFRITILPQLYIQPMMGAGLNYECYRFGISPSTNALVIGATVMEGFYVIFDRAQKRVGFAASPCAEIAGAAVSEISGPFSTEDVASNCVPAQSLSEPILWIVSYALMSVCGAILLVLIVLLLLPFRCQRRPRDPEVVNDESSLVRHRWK
Method: (II) Asps-1 Inhibitory Assay
(§2) For each compound being assayed, in a 384 well plate, is added:— • a) 1 μl of a DMSO solution of the test compound (IC50 curve uses ten 1 in 2 serial dilutions from 500 μM). • b) 10 μl of substrate (FAM-[SEVNLDAEFK]-TAMRA) solution in buffer. This is prepared by diluting 2 ml of a 2 mM DMSO solution of the substrate into 400 ml of buffer (100 mM Sodium acetate pH=4.5, 1 l Milli-Q water, 0.06% Triton X-100 (0.5 ml/l), pH adjusted to 4.5 using glacial acetic acid). • c) 10 μl enzyme solution. This is prepared by diluting 4 ml of a 6.3 μM enzyme solution into 496 ml of buffer (100 mM Sodium acetate pH=4.5, 40 mM sodium chloride, 900 ml Milli-Q water, 100 ml glycerol, 0.2% CHAPS (2 g/l), pH adjusted to 4.5 using glacial acetic acid).
Blank wells (enzyme solution replaced by buffer) are included as controls on each plate. Wells are incubated for 2 h at room temperature and fluorescence read using a Tecan Ultra Fluorimeter/Spectrophotometer (485 nm excitation, 535 nm emission).

[3] = biological target: Cathepsin D (Homo sapiens, UniProt P07339); experiment: Cathepsin D inhibitory assay (FAM-[SEVNLDAEFK]-TAMRA fluorescence); conditions: Assay (III), 1 h at room temperature, pH 4.5; read-out: inhibition (CatD)
Method: (III) Cathepsin D Inhibitory Assay
as §2, with “diluting 1.6” for “diluting 4”, “a 200 unit/ml (in 10 mM HCl)” for “a 6.3 μM”, “into 398.4” for “into 496”, “buffer (prepared as above).” for “buffer (100 mM Sodium acetate pH=4.5, 40 mM sodium chloride, 900 ml Milli-Q water, 100 ml glycerol, 0.2% CHAPS (2 g/l), pH adjusted to 4.5 using glacial acetic acid).”
as §1

Sequence of Asp-2 (P56817 46-501): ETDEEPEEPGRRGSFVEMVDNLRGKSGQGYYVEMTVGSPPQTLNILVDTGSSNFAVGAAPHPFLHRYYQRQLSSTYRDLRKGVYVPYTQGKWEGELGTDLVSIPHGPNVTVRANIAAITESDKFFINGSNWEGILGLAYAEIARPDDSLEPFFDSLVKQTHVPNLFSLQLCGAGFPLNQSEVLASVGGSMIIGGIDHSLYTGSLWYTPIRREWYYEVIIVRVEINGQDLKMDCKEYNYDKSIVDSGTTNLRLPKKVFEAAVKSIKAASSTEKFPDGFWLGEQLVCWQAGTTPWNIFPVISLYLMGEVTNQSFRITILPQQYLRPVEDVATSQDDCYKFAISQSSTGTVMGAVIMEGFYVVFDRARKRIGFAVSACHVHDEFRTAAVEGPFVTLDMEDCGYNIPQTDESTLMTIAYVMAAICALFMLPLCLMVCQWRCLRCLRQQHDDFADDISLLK
Sequence of Cathepsin D (P07339 65-412, species assumed): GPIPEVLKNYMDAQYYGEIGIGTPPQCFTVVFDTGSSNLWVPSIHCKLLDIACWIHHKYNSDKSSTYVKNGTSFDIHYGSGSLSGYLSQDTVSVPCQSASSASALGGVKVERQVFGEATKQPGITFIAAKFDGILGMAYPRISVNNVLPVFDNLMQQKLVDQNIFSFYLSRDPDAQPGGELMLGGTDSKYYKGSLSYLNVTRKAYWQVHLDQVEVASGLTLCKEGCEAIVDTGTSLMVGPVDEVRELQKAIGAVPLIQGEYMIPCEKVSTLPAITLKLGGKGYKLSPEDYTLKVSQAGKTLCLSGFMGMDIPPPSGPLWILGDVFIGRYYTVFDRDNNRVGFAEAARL

## C[C@H](C[C@H](O)[C@H](Cc1ccccc1)NC(=O)c1cccc(S(C)(=O)=O)c1)C(=O)NCCC(C)(C)C [Example E1, N-[(1S,2S,4R)-1-Benzyl-4-(3,3-dimethylbutylcarbamoyl)-2-hydroxypentyl]-3-methanesulfonyl-benzamide]
[1]; read-out: Asp-2 IC50
  IC50: 0.4 µM
[2]; read-out: Asp-1 IC50
  IC50: 7.7 µM

## C#CC[C@H](C[C@H](O)[C@H](Cc1ccccc1)NC(=O)c1cccc(S(C)(=O)=O)c1)C(=O)NC1CC2CCC1C2 (stereo partly shown) [Example E2]
[1]; read-out: Asp-2 IC50
  IC50: 0.33 µM
[2]; read-out: Asp-1 IC50
  IC50: 5.57 µM

## C[C@H](C[C@H](O)[C@H](Cc1ccccc1)NC(=O)c1ccc(S(C)(=O)=O)s1)C(=O)NCCC(C)(C)C [Example E9, 5-Methanesulfonyl-thiophene-2-carboxylic acid [(1S,2S,4R)-1-benzyl-4-(3,3-dimethyl-butylcarbamoyl)-2-hydroxypentyl]-amide]
[1]; read-out: inhibition (Asp-2)
  IC50: 0.18 µM
[3]
  IC50: 9.6 µM
[2]; read-out: inhibition (Asp-1)
  IC50: 3.3 µM
